# Tested on: 2×3 cm full-thickness skin wounds on the dorsum
# Assay: Guinea pig full-thickness skin wound closure (fractional change in wound area, closure rate, peak closure day)
# Assay type: in vivo, Hartley-derived guinea pigs
# Details: for Peak Closure Day (% Closure): % closure at the peak closure day; for Peak Closure Day: day of maximum closure rate, gel every 48 hours; for Closure % (Day) 50%: day on which 50% wound closure was reached, gel about 1 cc/cm^2 every 48 hours; for Peak closure rate (comparison in words): hormones in Agarose in saline (no medium), singly or three together; for Peak closure rate occurred later / closure rate of 50% slower: single hormone in Agarose in media; for Peak closure rate occurred later: compared to Media+3 hormones together; for closure rate of 50% slower: compared to the combination of the three hormones in media; for wound healing activity in medium relative to the same in saline: Agarose in medium vs Agarose in saline (without medium); for closure of 50% faster: single hormone in Agarose in saline (no medium), comparator not clearly stated
# Procedure: Under general anaesthesia of […], four 2×3 cm full-thickness skin patches were surgically extirpated from the dorsum of Hartley-derived guinea pigs. After application of the gel (about 1 cc/cm^2) to the wounds, the wounds were dressed with Omiderm, a polyurethane-based synthetic wound dressing (Omikron, Israel) and anchored with gauze and elastic adhesive bandage. Change of the bandages and administration of the gels were performed every 48 hours, under general anaesthesia, at which time in one group, the wounds were washed with ESDC disinfectant (Symbollon Corp., Mass., USA), washed with warm saline, measured and photographed. Computerized morphometric measurements of the photographs were made and the dynamics of the regeneration process were quantified and analyzed. A more detailed description and the results of these experiments is presented herein. Hartley-derived Albino guinea pigs weighing 300-400 grams were used in this study. The animals were housed in individual cages and fed regularly guinea pig chow and water enriched with Vitamin C ad libitum. […] All histological sections were prepared using Hematoxylene and Eosin stain as well as Mason's trichrome method for collagen. Each animal was anesthetized and four bilaterally symmetrical full-thickness skin segments measuring 2×3 cm were excised from the dorsum of each animal, two from the scapular region and two from the lumbar region. After washing the wounds with warm saline, the wounds were dressed with the gel at a concentration of about 1 cc/cm^2, covered with a polyurethane based synthetic membrane Omiderm (Omikron, Israel) and anchored with gauze, elastic adhesive and a […]., Italy). The dressings were changed every 48 hours under general anaesthesia, at which time the wounds were washed with warm saline to remove any debris and the remaining gel within the wound, measured, photographed and fresh gel was applied and the wounds dressed as described above. In one experiment, a disinfectant compress of ESDC (Symbollon, Corp.) was applied during the change of dressing for about ten minutes, preceded and followed by warm saline rinse. At days 4, 6, 8, 10 and 12, the animals were sacrificed and the wounds with the surrounding tissues were extirpated and prepared for histological examination. The thickness of the newly formed epithelial layer and of the underlying granulation tissue were measured using light microscopy (Zeiss) at 100×magnification. The wound macrophotographs were analyzed using ImageMeasure (Phoenix Corp., Seattle, Wash.) computerized morphometric program and the experimental results were plotted as graphs showing the fractional change in area (i.e. closure rate) of the wounds treated with gel-media+hormones versus the various controls. The wound closure rate was tabulated and peak closure day (% closure) was determined. Peak closure rate has been used as a measure of wound healing potency. Peak closure rate is the maximum slope of the [formula] vs. time curve. Peak closure rate indicates the time after the start of the treatment at which tissue healing or growth rate reaches a maximum value (maximum rate); i.e., when the treatment is optimal.
Molecule,concentration level relative to triiodothyronine giving the same effect (relative to triiodothyronine),Peak Closure Day (% Closure) [%],Peak Closure Day [days],Closure % (Day) 50% [days],Peak closure rate (comparison in words),Peak closure rate occurred later [%],closure rate of 50% slower [%],wound healing activity in medium relative to the same in saline,"wound healing, medium plus insulin vs medium plus IGF (Agarose in medium, IGF at 8 ng/ml, through day 9)",closure of 50% faster [%]
"N[C@@H](Cc1cc(I)c(Oc2cc(I)c(O)c(I)c2)c(I)c1)C(=O)O [thyroxine, reference compound]",3-5 times,–,–,–,–,–,–,–,–,–
"Growth Hormone: human growth hormone at 2 ng/ml in Agarose gel, in saline or in medium",–,50,6.0,6.0,the same,33,75,–,–,–
Insulin,–,30,3.0,5.0,the same,33,75,substantially enhanced wound healing activity,substantially better,15
Triiodothyronine/thyroxine [reference compound],–,30,3.0,5.0,the same,33,75,substantially enhanced wound healing activity,–,15
